US20260098017A1, “NOVEL AROMATIC RING DERIVATIVE CONTAINING AMIDE SUBSTITUTION AND USE THEREOF” (TIANJIN PHARMACEUTICAL BIOTECHNOLOGY CO., LTD., priority 2022, published 2026)
Marks after values point to notes of the source that are not given here.

Key:
[1] = system: imiquimod-induced mouse psoriasis-like model; assay: Imiquimod-induced mouse psoriasis-like model (PASI score); format: in vivo; conditions: oral gavage, 10 mg/kg, 25 mg/kg, 50 mg/kg, bid, compared with the model group
JAK2 JH1 kinase = JAK2 JH1 kinase (Homo sapiens, UniProt O60674); assay: JAK2 JH1 enzyme assay in vitro (TR-FRET); format: biochemical; conditions: read-out: JAK 2 JH1 IC50
TYK2 JH2 pseudokinase = TYK2 JH2 pseudokinase (Homo sapiens, UniProt P29597); assay: TYK2 JH2 enzyme binding assay in vitro (TR-FRET)
Protocol: Instrumentation: Envision microplate reader (PerkinElmer), ECHO550 (LABCYTE).
Method: the inhibitory effects of compounds on TYK2 JH2 pseudokinase was tested using time-resolved fluorescence resonance energy transfer (TR-FRET) method.
Procedure: compounds were prepared into 10 mM stock solutions using DMSO, which were further diluted into compound dilutions (200×) with different concentration gradients in DMSO, and the compound dilutions (200×) were transferred to a 384-well assay plate using an Echo instrument. […] TYK2 JH2 pseudokinase, Tb antibody, and Tracer working solutions were prepared using the dilution buffer, respectively. 5 uL of TYK2 JH2 pseudokinase working solution (final concentration 0.5 nM) was added to a 384-well assay plate, and centrifuged at 1000 rpm for 30 s. 5 uL of Tb antibody (final concentration 1×) was added to the 384-well assay plate, and centrifuged at 1000 rpm for 30 s. 5 uL of Tracer (final concentration 0.5 nM) was added to the 384-well assay plate, and centrifuged at 1000 rpm for 30 s. Incubation was performed at room temperature for 60 min, and then at 4° C. overnight.
Data Analysis: XLfit, a software developed by IDBS and integrated into the Microsoft Excel environment, was used to process and analyze the test data.

[2] = system: imiquimod-induced mouse psoriasis-like model; assay: Imiquimod-induced mouse psoriasis-like model (PASI score); format: in vivo
Source text: The efficacy of the compounds according to the present invention in an imiquimod-induced mouse psoriasis-like model could be assessed using the following method:
Sample preparation: with reference to the preparation of commercially available Benvitimod cream. The compound (the compound of Example 3), the oil phase (hexadecanol, vaseline, liquid paraffin, and glyceryl mono- and distearate), the aqueous phase (propylene glycol, Tween 80, and water), and the appropriate additive (ethylparaben) were mixed, and subjected to vacuum emulsification to prepare a 1% cream sample.
A test site on the back of the animal was shaved to expose an area measuring of 2×3 cm^2. Imiquimod ointment was continuously applied to the back skin of the mice for 6 days to establish a mouse psoriasis model. From day 1 to day 6, various groups of animals were administered respectively according to the experimental protocol.
At day 7, the severity of skin inflammation was assessed and scored using a 5-point scale (0-4) (PASI score):
Skin thickness: 0: the skin was smooth without wrinkles; 1: the skin at the edge of the drug application area had slight wrinkles; 2: the skin in the drug application area all had slight wrinkles; 3: the degree of wrinkles in the drug application area was further deepened; and 4: on the basis of the score of 3, the mouse had the conditions of weight loss or poor state and the like. […]

hERG channel = target: T1, hERG channel (Homo sapiens, UniProt Q12809); assay: hERG potassium channel inhibition assay (manual patch clamp); format: cell-based; conditions: HEK-293 cell line stably expressing hERG channel, at the tested concentrations
T1 construct: expressed in transfected cells; host or cells: HEK-293
Protocol: Instrumentation: HEKA EPC 10 patch clamp amplifier.
Method: in this experiment, the blocking effect of the compounds on the current of the HEK-293 cell line stably expressing hERG channel was measured using the manual patch clamp technique, and the risk of the compounds on the inhibition of cardiac hERG potassium channel was assessed by fitting the concentration effect relationship.
Procedure: in the patch clamp operation, firstly, a capillary glass tube was pulled into a recording electrode using a microelectrode puller, then an electrode filled with intracellular solution was mounted into a microelectrode holder. A microelectrode manipulator was operated under an inverted microscope to immerse the electrode into an extracellular solution and the electrode resistance (Rpip) was recorded. Then, the electrode was slowly brought into contact with the cell surface, and a negative pressure was applied for suction to form a GΩ seal. At this point, a fast capacitance compensation was performed, and a negative pressure was continuously applied to suck and break the cell membrane to form a whole cell recording mode. Finally, a slow capacitance compensation was performed and experimental parameters including series resistance (Rs) and the like were recorded. No leakage compensation was performed. When the hERG current recorded by the whole cell was stable, the administration of drugs commenced, and each drug concentration acted for about 5 min (or until the current stabilization) before detecting the next concentration. A cover glass covered with cells was placed in a recording bath under an inverted microscope, the blank control extracellular solution and the working solution of the compounds to be tested sequentially flowed through the recording bath from low concentration to high concentration by using gravity perfusion to act on the cells, and solution exchange was performed using a peristaltic pump during recording. The current measured by each cell in the extracellular solution without the compound served as its own control group. Each concentration was independently assessed twice. All electrophysiological tests were performed at room temperature.
Data Analysis: firstly, the tail current (Peak tail currentcompound) after the action of each drug concentration and the blank control tail current (Peak tail currentcontrol) were normalized, then the inhibition rate
corresponding to each drug concentration was calculated, and the mean (Mean), standard deviation (SD) and standard error (SE) of the inhibition rate corresponding to each concentration were calculated, with data expressed as Mean±SE. The calculation of IC50 value and the fitting of dose-response curve for the compound were performed using GraphPad Prism software.

Chain of JAK2 JH1 kinase (O60674 849-1124 limits assumed): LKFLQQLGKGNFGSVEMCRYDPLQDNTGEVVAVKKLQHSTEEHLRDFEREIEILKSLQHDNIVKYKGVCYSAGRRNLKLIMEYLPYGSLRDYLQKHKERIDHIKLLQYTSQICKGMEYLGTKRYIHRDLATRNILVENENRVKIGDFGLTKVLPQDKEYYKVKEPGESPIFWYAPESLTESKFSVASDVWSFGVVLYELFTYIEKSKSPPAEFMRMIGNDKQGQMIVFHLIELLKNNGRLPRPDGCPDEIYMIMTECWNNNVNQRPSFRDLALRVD
T1 sequence (Q12809 whole entry): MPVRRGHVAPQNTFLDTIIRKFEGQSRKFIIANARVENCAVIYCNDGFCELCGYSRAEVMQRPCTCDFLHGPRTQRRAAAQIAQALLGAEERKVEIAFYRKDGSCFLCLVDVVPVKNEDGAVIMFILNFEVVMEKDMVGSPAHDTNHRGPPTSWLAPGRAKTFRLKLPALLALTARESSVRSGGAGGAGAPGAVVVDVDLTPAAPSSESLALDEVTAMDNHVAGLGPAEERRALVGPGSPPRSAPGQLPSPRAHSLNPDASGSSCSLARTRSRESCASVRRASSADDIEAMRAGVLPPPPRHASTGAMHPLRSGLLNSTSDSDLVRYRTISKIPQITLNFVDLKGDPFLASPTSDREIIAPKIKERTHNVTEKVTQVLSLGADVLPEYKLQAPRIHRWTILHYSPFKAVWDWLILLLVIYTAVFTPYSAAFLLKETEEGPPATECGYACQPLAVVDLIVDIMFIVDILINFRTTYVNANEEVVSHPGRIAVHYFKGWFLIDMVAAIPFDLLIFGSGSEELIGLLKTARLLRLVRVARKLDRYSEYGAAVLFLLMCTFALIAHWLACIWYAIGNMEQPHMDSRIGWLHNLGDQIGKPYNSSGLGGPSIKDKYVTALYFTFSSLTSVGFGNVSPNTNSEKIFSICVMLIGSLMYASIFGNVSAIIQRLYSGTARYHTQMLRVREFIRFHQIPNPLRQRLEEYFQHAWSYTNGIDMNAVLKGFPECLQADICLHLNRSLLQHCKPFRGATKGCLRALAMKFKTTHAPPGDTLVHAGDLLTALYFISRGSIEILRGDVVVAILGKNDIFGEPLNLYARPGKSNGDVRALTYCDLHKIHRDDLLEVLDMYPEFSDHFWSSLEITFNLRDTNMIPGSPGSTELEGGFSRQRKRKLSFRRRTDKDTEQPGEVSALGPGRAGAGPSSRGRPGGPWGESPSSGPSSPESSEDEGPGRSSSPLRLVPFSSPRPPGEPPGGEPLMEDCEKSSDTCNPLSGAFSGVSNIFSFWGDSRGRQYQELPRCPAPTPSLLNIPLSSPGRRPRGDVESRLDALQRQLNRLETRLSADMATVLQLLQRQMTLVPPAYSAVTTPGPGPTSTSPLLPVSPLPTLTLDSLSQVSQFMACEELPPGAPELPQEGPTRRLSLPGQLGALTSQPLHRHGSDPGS
Chain of TYK2 JH2 pseudokinase (P29597 589-875 limits assumed): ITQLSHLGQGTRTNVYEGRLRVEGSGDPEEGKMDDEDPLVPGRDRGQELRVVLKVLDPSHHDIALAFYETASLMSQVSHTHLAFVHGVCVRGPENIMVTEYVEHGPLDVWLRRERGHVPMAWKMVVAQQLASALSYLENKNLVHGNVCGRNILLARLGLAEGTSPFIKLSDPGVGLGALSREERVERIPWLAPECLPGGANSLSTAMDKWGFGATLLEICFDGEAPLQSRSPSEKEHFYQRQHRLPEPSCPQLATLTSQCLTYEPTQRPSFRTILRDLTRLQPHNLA

With `[2H]C([2H])([2H])NC(=O)c1nnc(NC(=O)C2CC2)cc1Nc1cccc(C(=O)Nc2cccc(C)c2)c1OC` [Example 3] the “Improvement of psoriasis symptoms by oral administration” value [1] was “effectively improve psoriasis symptoms”, the IC50 (JAK2 JH1 kinase) was > 10000 nM and the IC50 (TYK2 JH2 pseudokinase) was 0.274 nM. For the same molecule, the “Percentage reduction in PASI score %” value ([2]; day 7, 1% cream, 100 mg, topical, qd, day 1 to 6) was 40.7*** %, the “Improvement of psoriasis symptoms” value ([2]; topical cream, compared with the model group) was “effectively improved psoriasis symptoms” and the hERG inhibition (hERG channel) was “no significant inhibition”.
